Experiments:
[1] = target: sucrase-isomaltase (Sus scrofa); test: Alpha-D-glucosidase inhibitory activity and enzyme inhibition in vitro against porcine sucrase
[2] = target: maltase-glucoamylase (Sus scrofa); test: Inhibitory activity against porcine maltase

IC50 [1] [µM] | IC50 [2] [µM] | Compound
0.0093 | 0.24 | OC[C@@]1(O)C[C@H](NCC2CCCCC2)[C@H](O)[C@@H](O)[C@@H]1O [5-(Cyclohexylmethyl-amino)-1-hydroxymethyl-cyclohexane-1,2,3,4-tetraol]
0.08 | 0.072 | CO[C@H]1O[C@H](CO)[C@@H](N[C@H]2C[C@](O)(CO)[C@@H](O)[C@H](O)[C@H]2O)[C@H](O)[C@H]1O
0.015 | 0.23 | OC[C@@]1(O)C[C@H](NCc2ccc(Br)cc2)[C@H](O)[C@@H](O)[C@@H]1O [5-(4-Bromo-benzylamino)-1-hydroxymethyl-cyclohexane-1,2,3,4-tetraol]
0.23 | 0.1 | CO[C@H]1O[C@H](CO)[C@H](N[C@H]2C[C@](O)(CO)[C@@H](O)[C@H](O)[C@H]2O)[C@H](O)[C@H]1O
0.011 | 0.52 | CC(C)=CCC/C(C)=C/CN[C@H]1C[C@](O)(CO)[C@@H](O)[C@H](O)[C@H]1O [5-(3,7-Dimethyl-octa-2,6-dienylamino)-1-hydroxymethyl-cyclohexane-1,2,3,4-tetraol]
0.049 | 2.2 | N[C@H]1C[C@](O)(CO)[C@@H](O)[C@H](O)[C@H]1O [Valiolamine]
0.18 | 5.9 | OCC1=C[C@H](NC(CO)CO)[C@H](O)[C@@H](O)[C@@H]1O [6-(2-Hydroxy-1-hydroxymethyl-ethylamino)-4-hydroxymethyl-cyclohex-4-ene-1,2,3-triol]
0.19 |  | OC[C@@]1(O)C[C@H](NC[C@@H](O)c2ccccc2)[C@H](O)[C@H](O)[C@H]1O [1-Hydroxymethyl-5-(2-hydroxy-2-phenyl-ethylamino)-cyclohexane-1,2,3,4-tetraol]
0.0068 | 0.043 | CC(C)(C)c1cc(CN[C@H]2C[C@](O)(CO)[C@@H](O)[C@H](O)[C@H]2O)cc(C(C)(C)C)c1O [5-(3,5-Di-tert-butyl-4-hydroxy-benzylamino)-1-hydroxymethyl-cyclohexane-1,2,3,4-tetraol]
 | 0.0058 | OC[C@@]1(O)C[C@H](NC[C@H](O)c2ccccc2)[C@H](O)[C@H](O)[C@H]1O [1-Hydroxymethyl-5-(2-hydroxy-2-phenyl-ethylamino)-cyclohexane-1,2,3,4-tetraol]

Compound | IC50 [1] [µM] | IC50 [2] [µM]
OC[C@@]1(O)C[C@H](NCCc2ccccc2)[C@H](O)[C@@H](O)[C@@H]1O [1-Hydroxymethyl-5-phenethylamino-cyclohexane-1,2,3,4-tetraol] | 0.0023 | 0.1
OC[C@@]1(O)C[C@H](NC2CCCCC2)[C@H](O)[C@@H](O)[C@@H]1O [5-Cyclohexylamino-1-hydroxymethyl-cyclohexane-1,2,3,4-tetraol] | 0.015 | 0.41

Source: BindingDB's records for doi:10.1021/jm00156a023 (1986)
